Here are results for seven molecules from publication PMC7252619 (PLoS ONE, 2020).

The target of one series is T1, EPHB4 (Homo sapiens, UniProt P54760).
T1 construct: purchased ReactionBiology
T1 sequence (P54760 16-987): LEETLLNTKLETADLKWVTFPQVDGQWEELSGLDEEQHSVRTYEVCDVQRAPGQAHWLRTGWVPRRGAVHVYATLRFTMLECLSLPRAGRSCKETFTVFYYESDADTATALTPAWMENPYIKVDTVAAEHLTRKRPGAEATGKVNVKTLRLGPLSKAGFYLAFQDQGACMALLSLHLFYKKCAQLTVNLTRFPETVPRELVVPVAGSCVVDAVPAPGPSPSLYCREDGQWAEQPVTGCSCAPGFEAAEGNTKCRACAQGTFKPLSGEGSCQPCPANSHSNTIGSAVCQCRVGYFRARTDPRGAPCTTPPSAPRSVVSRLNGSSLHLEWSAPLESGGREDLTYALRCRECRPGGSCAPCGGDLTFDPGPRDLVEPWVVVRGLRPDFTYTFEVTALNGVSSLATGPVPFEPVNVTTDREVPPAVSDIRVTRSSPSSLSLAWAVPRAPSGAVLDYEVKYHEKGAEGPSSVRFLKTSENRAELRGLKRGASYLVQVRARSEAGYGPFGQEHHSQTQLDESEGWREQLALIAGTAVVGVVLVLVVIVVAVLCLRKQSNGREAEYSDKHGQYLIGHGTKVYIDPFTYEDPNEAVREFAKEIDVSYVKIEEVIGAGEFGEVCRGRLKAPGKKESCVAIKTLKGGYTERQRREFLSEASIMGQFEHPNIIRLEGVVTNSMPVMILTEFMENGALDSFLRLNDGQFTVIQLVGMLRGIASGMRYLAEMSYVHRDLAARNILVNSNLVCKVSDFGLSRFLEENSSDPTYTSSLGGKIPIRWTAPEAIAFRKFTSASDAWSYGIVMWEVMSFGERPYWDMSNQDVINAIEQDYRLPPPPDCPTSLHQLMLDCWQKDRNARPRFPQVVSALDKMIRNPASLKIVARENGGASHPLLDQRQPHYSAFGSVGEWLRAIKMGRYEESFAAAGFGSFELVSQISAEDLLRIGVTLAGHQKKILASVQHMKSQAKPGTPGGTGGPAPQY
Put plainly: Kinase activity test (ReactionBiology), % enzyme activity relative to DMSO. It counts as biochemical. Particulars: EPHB4; for % Enzyme Activity (relative to DMSO controls), Data 1: replicate Data 1; for % Enzyme Activity (relative to DMSO controls), Data 2: replicate Data 2.

A further series addresses T2, CK1d (Homo sapiens, UniProt P48730).
T2 construct: purchased ReactionBiology
Described as above. To be noted: CK1d. It counts as biochemical.

Another series has as its target T3, DAPK1 (Homo sapiens, UniProt P53355).
T3 construct: purchased ReactionBiology
The description is as above. It counts as biochemical. Particulars: DAPK1; for % Enzyme Activity (relative to DMSO controls), Data 1: replicate Data 1; for % Enzyme Activity (relative to DMSO controls), Data 2: replicate Data 2.

The target of another series is T4, CDC7 (Homo sapiens, UniProt O00311).
T4 construct: purchased ReactionBiology
Described as above. It counts as biochemical. Particulars: CDC7; for % Enzyme Activity (relative to DMSO controls), Data 1: replicate Data 1; for % Enzyme Activity (relative to DMSO controls), Data 2: replicate Data 2.

A further series deals with VEGFR2 (Homo sapiens, UniProt P35968). The series is described as above. It counts as biochemical. Further details: purchased ReactionBiology. Particulars: VEGFR2; for % Enzyme Activity (relative to DMSO controls), Data 1: replicate Data 1; for % Enzyme Activity (relative to DMSO controls), Data 2: replicate Data 2.
A further series addresses T5, NEK2 (Homo sapiens, UniProt P51955).
T5 construct: purchased ReactionBiology
T5 sequence (P51955 1-445): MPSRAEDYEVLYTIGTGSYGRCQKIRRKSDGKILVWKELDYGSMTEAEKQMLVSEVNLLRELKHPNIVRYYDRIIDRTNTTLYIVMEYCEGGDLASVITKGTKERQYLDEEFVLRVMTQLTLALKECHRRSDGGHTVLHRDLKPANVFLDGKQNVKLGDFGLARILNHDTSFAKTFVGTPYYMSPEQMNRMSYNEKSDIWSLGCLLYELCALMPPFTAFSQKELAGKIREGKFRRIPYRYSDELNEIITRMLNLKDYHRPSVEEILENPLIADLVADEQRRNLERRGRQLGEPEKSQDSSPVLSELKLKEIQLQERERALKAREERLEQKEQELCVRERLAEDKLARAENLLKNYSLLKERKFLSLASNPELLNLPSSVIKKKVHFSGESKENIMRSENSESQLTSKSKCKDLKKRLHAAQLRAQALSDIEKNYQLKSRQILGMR
The description is as above. It counts as biochemical. Particulars: NEK2.

Series [1] can be described thus: WST-1 cytotoxicity assay on RPMI1788 cells (B-cell line). It counts as cell-based, human. To be noted: human, RPMI1788 cells (B-cell line), mean of 4 independent measures, read-out: Cytotoxicity, WST-1 RPMI 1788 IC 50 (µM) Mean.
Series [2] is described as follows: WST-1 cytotoxicity assay on Jurkat cells (T-cell line). To be noted: human, Jurkat cells (T-cell line), mean of 4 independent measures, read-out: Cytotoxicity, WST-1 Jurkat IC 50 (µM) Mean. Type of series: cell-based, human. A general note: Formazan colour is commonly taken as a measure of viable cells.
In the next series the test system is human CD19+ B cells. Nature of the series: B-cell assay: IgG production of ODN2006-stimulated primary B cells (AlphaLISA). It counts as cell-based. To be noted: Homo sapiens, B-cell, 168 h, read-out: B-cell IC50 (μM).
Series [3] relates to human PBMCs (responder cells) with RPMI1788 stimulator cells. Nature of the series: Mixed Lymphocyte Reaction (MLR, T cell assay), 3H-thymidine incorporation. Type of series: cell-based. To be noted: Homo sapiens, RPMI-1788; mean of 4 independent measures; read-out: T-cell efficacy, MLR IC 50 (µM) Mean.
Protocol: In order to test the efficacy and selectivity of the hit compounds on B-cells, 4 assays were performed: B-cell assay, Mixed Lymphocyte Reaction (MLR), WST-1 assay on RPMI1788 cells (B-cell line) and cytotoxicity WST-1 assay on Jurkat cells (T-cell line). Compounds were prepared as 10 mM stock solutions in dimethylsulfoxide (DMSO)and were tested at 50-10-1-0.1-0.01 and 0.001 μM in the 4 assays.
Blood samples of healthy volunteers were collected at the Red Cross of Mechelen, Belgium. Each donor consents to the use of their blood for research purposes. […] The human B cell line RPMI1788 (American Type Culture Collection, USA) and the human T cell line Jurkat (European Collection of Cell Cultures, ECACC, England) were maintained in RPMI1640 culture medium (BioWhittaker®, Lonza, Verviers, Belgium) containing 10% foetal calf serum (FCS, HyClone® Thermo Scientific, United Kingdom) and 5 μg/mL gentamicin sulphate (BioWhittaker®, Lonza, Verviers, Belgium) at 37°C and 5% CO2.
MLR assay (T cell assay): Freshly isolated human PBMCs (responder cells) were resuspended in RPMI1640 medium containing 10% FCS and 5nμg/mL gentamicin sulphate. RPMI1788 cells (stimulator cells) were inactivated by treatment with mitomycin C (Kyowa®, Takeda Belgium, Brussels, Belgium) for 20 min at 37°C, washed and finally suspended in culture medium. An amount of 100 μL of each cell suspension was mixed with 20 μL of diluted compound. The mixed cells were cultured at 37°C for 6 days in 5% CO2. DNA synthesis was assayed by the addition of 10 μCi (methyl-3H) thymidine (Perkin Elmer, Zaventem, Belgium) per well during the last 18 h in culture. Thereafter, the cells were harvested on glass filter paper and the counts per minute determined in a liquid scintillation counter (TopCount, Perkin Elmer, Zaventem, Belgium).
[4] abbreviates: 1 uM, Average, read-out: % Enzyme Activity (relative to DMSO controls), Average.
[5] abbreviates: 1 uM, replicate Data 1, read-out: % Enzyme Activity (relative to DMSO controls), Data 1.
The mark [6] stands for this setting: 1 uM, replicate Data 2, read-out: % Enzyme Activity (relative to DMSO controls), Data 2.
Where [7] appears, read: 10 uM, Average, read-out: % Enzyme Activity (relative to DMSO controls), Average.
[8] abbreviates: 10 uM, replicate Data 1, read-out: % Enzyme Activity (relative to DMSO controls), Data 1.
Where [9] appears, read: 10 uM, replicate Data 2, read-out: % Enzyme Activity (relative to DMSO controls), Data 2.
[10] abbreviates: compound 1μM, relative to DMSO controls, read-out: % Enzyme activity at 1μM.
Setting [11] is: compound 10μM, relative to DMSO controls, read-out: % Enzyme activity at 10μM.

Read-outs that look alike come from different tables or passages of the source.
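Wherever % Enzyme activity at 10μM is given: FDA-approved drugs chosen by structure-based repositioning, each screened at 10 or 1 µM for kinase activity, expressed as percent of DMSO controls.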
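Wherever % Enzyme activity at 1μM is given: FDA-approved drugs chosen by structure-based repositioning, each screened at 10 or 1 µM for kinase activity, expressed as percent of DMSO controls.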

T4 sequence (O00311 whole entry): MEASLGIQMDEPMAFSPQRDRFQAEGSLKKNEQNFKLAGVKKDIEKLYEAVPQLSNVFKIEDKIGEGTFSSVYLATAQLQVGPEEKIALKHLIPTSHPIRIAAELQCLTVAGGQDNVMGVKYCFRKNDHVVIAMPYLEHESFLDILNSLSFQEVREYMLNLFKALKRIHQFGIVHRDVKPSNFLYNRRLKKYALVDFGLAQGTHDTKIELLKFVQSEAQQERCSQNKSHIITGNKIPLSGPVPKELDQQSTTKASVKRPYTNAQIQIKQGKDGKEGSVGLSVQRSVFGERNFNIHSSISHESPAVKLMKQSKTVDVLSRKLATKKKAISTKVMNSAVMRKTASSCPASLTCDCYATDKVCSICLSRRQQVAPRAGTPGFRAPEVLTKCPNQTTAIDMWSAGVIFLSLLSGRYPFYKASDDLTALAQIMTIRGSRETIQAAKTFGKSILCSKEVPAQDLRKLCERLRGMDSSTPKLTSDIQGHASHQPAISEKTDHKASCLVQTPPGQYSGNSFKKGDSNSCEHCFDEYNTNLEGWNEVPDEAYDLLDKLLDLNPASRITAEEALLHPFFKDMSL
T4 sequence (Q9UBU7 whole entry partner): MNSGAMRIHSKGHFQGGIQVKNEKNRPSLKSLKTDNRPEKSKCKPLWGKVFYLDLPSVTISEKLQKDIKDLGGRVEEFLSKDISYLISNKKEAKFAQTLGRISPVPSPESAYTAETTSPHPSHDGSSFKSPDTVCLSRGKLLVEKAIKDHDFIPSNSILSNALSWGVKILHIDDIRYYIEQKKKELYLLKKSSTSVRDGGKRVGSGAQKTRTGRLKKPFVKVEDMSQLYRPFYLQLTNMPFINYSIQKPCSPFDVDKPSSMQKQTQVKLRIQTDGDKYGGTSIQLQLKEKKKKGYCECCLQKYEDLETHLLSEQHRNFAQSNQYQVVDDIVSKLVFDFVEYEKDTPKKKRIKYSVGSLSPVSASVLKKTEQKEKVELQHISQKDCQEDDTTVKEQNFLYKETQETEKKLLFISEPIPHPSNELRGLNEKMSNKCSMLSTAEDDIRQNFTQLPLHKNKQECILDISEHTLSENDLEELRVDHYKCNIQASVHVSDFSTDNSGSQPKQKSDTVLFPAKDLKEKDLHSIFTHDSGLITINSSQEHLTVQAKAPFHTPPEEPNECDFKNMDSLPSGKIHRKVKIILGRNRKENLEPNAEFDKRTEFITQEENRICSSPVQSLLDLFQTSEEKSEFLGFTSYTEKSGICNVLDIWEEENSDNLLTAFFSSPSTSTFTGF
Chain of VEGFR2 (P35968 20-1356): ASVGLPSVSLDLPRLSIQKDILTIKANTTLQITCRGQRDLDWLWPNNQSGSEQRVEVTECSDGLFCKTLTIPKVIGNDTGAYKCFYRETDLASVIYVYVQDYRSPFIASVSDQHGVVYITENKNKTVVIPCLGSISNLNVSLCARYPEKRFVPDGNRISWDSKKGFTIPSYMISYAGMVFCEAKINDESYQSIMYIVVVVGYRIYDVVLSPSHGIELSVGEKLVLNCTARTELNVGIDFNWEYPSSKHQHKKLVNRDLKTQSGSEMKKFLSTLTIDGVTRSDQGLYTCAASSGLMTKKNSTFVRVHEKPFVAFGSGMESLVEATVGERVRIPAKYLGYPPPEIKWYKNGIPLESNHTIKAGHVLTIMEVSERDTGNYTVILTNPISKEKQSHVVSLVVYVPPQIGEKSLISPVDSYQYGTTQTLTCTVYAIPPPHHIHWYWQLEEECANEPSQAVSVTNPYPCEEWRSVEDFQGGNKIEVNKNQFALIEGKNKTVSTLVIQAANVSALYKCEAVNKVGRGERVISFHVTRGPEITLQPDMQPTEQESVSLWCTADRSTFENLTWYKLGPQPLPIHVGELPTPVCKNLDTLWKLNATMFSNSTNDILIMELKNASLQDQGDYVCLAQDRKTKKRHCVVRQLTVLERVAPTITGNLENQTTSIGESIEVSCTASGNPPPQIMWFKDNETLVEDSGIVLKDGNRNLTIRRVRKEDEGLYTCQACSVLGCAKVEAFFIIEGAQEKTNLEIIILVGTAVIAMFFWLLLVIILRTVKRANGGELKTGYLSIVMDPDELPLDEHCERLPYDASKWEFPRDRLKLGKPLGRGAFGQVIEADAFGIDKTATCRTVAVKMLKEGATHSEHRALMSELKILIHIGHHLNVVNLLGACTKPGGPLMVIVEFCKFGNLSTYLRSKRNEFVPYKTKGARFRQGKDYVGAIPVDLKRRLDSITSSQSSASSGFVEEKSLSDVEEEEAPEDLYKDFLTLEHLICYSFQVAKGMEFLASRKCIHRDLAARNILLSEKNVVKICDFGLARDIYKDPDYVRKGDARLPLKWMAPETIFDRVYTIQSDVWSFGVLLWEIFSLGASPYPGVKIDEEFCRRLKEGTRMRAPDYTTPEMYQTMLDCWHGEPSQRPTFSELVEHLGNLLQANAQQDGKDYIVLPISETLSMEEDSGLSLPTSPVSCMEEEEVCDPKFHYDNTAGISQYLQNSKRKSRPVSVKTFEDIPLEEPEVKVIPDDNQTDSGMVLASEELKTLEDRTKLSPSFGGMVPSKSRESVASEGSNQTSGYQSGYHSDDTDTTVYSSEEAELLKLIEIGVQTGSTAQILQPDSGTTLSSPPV
T2 sequence (P48730 whole entry): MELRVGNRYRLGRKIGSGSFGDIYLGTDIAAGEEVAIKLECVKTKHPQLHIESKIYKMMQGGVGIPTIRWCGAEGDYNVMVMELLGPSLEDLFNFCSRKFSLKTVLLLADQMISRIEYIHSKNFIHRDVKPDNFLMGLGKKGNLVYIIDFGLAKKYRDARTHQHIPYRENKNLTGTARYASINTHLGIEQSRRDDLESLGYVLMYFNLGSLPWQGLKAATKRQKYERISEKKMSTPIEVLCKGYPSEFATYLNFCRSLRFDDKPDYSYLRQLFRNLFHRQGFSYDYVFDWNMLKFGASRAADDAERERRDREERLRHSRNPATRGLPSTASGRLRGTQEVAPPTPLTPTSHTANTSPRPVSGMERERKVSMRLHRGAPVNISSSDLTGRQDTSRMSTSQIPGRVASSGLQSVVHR
T3 sequence (P53355 whole entry): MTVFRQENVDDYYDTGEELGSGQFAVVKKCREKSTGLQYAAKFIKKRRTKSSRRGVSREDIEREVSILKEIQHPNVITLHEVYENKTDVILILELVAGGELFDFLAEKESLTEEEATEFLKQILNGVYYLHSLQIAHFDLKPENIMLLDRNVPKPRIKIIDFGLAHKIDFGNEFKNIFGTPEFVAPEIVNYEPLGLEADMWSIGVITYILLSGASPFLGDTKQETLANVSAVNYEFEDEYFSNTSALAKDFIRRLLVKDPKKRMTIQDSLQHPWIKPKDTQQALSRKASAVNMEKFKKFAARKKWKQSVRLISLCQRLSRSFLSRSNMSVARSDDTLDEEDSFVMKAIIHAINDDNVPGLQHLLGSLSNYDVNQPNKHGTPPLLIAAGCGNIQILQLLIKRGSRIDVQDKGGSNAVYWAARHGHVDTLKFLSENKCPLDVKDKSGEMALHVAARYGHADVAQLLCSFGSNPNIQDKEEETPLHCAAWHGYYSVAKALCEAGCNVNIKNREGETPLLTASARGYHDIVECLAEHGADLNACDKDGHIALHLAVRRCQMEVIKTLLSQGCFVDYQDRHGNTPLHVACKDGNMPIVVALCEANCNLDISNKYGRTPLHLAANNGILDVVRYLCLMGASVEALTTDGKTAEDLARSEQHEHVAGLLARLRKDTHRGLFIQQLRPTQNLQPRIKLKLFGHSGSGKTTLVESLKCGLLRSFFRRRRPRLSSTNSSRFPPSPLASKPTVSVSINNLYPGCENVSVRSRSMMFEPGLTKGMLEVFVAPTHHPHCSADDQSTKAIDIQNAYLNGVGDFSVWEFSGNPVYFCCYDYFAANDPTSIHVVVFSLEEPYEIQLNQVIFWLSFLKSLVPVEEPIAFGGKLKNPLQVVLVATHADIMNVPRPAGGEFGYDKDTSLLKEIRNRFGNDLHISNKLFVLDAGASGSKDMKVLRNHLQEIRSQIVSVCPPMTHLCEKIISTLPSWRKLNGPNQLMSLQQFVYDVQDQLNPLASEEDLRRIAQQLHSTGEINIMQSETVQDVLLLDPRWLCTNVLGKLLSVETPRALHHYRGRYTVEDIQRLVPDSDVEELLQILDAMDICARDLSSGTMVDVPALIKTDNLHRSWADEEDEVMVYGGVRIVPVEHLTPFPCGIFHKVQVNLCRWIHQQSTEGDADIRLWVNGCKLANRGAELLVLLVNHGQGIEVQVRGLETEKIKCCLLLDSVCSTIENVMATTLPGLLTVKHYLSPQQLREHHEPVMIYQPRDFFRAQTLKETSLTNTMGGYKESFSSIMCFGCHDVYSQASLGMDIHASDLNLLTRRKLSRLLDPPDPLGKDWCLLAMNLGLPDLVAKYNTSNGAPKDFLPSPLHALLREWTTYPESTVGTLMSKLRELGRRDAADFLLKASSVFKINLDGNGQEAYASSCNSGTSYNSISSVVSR

In the case of `CC(=O)Nc1ccc(O)cc1` [Acetaminophen], the “% Enzyme Activity (relative to DMSO controls), Data 1” value is listed as 95.30% on EPHB4 (1 uM); 99.39% on EPHB4 (10 uM); 106.63% at CK1d (1 uM, replicate Data 1); 112.11% at DAPK1 (1 uM); 98.16% at DAPK1 (10 uM); 78.79% on CDC7 (1 uM). At CDC7 (10 uM), the “% Enzyme Activity (relative to DMSO controls), Data 1” value is given as 85.04%.
For the molecule `O=C(N[C@H](CO)[C@H](O)c1ccc([N+](=O)[O-])cc1)C(Cl)Cl` [Chloramphenicol], the “% Enzyme Activity (relative to DMSO controls), Average” value on EPHB4 (1 uM) turned out to be 98.03%; on EPHB4 (10 uM), 95.14%; on CK1d (1 uM, Average), 107.32%; on DAPK1 (1 uM), 109.45%; on DAPK1 (10 uM), 99.12%; on VEGFR2 (1 uM), 102.81%. Also, the figures for the “% Enzyme Activity (relative to DMSO controls), Average” value at VEGFR2 (10 uM), on CDC7 (1 uM) and on CDC7 (10 uM) were 107.54%, 70.23% and 72.94%, respectively.
Regarding `CC/C(=C(/CC)c1ccc(O)cc1)c1ccc(O)cc1` [Diethylstilbestrol, reference compound], the remaining activity at 1 µM at CK1d (setting [4]) amounted to 106%; at CK1d (setting [5]) it was 107%; on CK1d (setting [6]), 104%; at NEK2 (setting [4]) it was 97.9%; at NEK2 (setting [5]), 94.5%; on NEK2 (setting [6]) it was 101%. Moreover, at NEK2 (setting [10]), the remaining activity at 1 µM came to 97.9%. In addition, the remaining activity at 10 µM on CK1d (Average, read-out: % Enzyme Activity (relative to DMSO controls), Average) worked out at 84.8%; at CK1d (replicate Data 1, read-out: % Enzyme Activity (relative to DMSO controls), Data 1), 84.6%; at CK1d (replicate Data 2, read-out: % Enzyme Activity (relative to DMSO controls), Data 2) it was 85.1%; at NEK2 (setting [7]), 50.7%; at NEK2 (setting [8]), 44.7%; on NEK2 (setting [9]), 56.7%. On NEK2 (setting [11]), the remaining activity at 10 µM is 50.7%. Moreover, the IC50 at 48 h in [1] stood at 31.4 µM; in series [2], 6.7 µM.
Consider `C[C@]12CCC(=O)C=C1CC[C@@H]1[C@@H]2[C@@H](O)C[C@@]2(C)[C@H]1CC[C@]2(O)C(=O)CO` [Hydrocortisone], for which the “% Enzyme Activity (relative to DMSO controls), Average” value at EPHB4 (1 uM) is given as 102.86%; on EPHB4 (10 uM), 91.65%; on DAPK1 (1 uM) it was 114.18%; at DAPK1 (10 uM), 104.62%; at VEGFR2 (1 uM) it was 99.23%; on VEGFR2 (10 uM), 102.28%. Further, the entries for the “% Enzyme Activity (relative to DMSO controls), Average” value at CDC7 (1 uM) and on CDC7 (10 uM) were 74.38% and 75.76%, respectively. For the same molecule, the “% Enzyme Activity (relative to DMSO controls), Data 1” value at EPHB4 (1 uM) is on record as 105.83%; at EPHB4 (10 uM) it was 91.79%; on DAPK1 (1 uM), 116.14%; on DAPK1 (10 uM), 110.58%; at VEGFR2 (1 uM), 98.18%; on VEGFR2 (10 uM) it was 99.63%. Further, the results for the “% Enzyme Activity (relative to DMSO controls), Data 1” value on CDC7 (1 uM) and at CDC7 (10 uM) were 77.32% and 77.92%, respectively. For the same molecule, the “% Enzyme Activity (relative to DMSO controls), Data 2” value on EPHB4 (1 uM) is recorded as 99.88%; at EPHB4 (10 uM) it was 91.51%; at DAPK1 (1 uM) it was 112.22%; at DAPK1 (10 uM) it was 98.66%; at VEGFR2 (1 uM), 100.27%; on VEGFR2 (10 uM), 104.92%. For the same molecule, the “% Enzyme Activity (relative to DMSO controls), Data 2” value was found to be 71.43% at CDC7 (1 uM) and 73.60% at CDC7 (10 uM).
Regarding `CN1CCN(CCCN2c3ccccc3Sc3ccc(Cl)cc32)CC1` [Prochlorperazine, reference compound], the remaining activity at 1 µM on NEK2 (setting [4]) is 70.1%; at NEK2 (setting [5]), 67.7%; at NEK2 (setting [6]), 72.5%; at NEK2 (setting [10]), 70.1%. Besides, the remaining activity at 10 µM was found to be 68.7% at NEK2 (setting [7]), 69.6% on NEK2 (setting [8]), 67.8% at NEK2 (setting [9]) and 68.7% on NEK2 (setting [11]). In addition, the IC50 at 48 h was 9.63 µM in [1] and 21.9 µM in [2].
As to `C[C@@H]1CCN(C(=O)CC#N)C[C@@H]1N(C)c1ncnc2[nH]ccc12` [Tofacitinib], the IC50 at 48 h in series [1] and in series [2] was greater than 50 µM throughout.
As for `N[C@@H](Cc1cc(I)c(Oc2ccc(O)c(I)c2)c(I)c1)C(=O)O` [Triiodothyronine], the IC50 is 36.8 µM in the series on human CD19+ B cells and 44.2 µM in series [3]. Besides, the IC50 at 48 h in series [2] is greater than 50 µM.
